# Measured values published in patent US20160159774A1 (Celgene Avilomics Research, Inc., priority 2014, published 2016).
# Columns and labels:
# [1] = target: T1, BTK in Ramos human Burkitt lymphoma cells (Homo sapiens, UniProt Q06187); assay: BTK Ramos cellular assay (BTK occupancy); type: cell-based; details: concentration producing 50% occupancy of BTK, 1 hour incubation with compound
# T1 construct: Compounds of this invention were assayed in Ramos human Burkitt lymphoma cells; endogenous in cells; host or cells: Ramos human Burkitt lymphoma cells
# Method: BTK activity in Ramos cells, in the presence of a compound of the invention, can be measured by 3 different methods: 1) inhibition of autophosphorylation of BTK; 2) inhibition of phosphorylation of the immediate BTK surrogate PLCγ2; and 3) BTK occupancy. […] In this instance, BTK occupancy was chosen and is described below.
# Compounds of this invention were assayed in Ramos human Burkitt lymphoma cells. Ramos cells were grown in suspension in T175 flasks, spun down, resuspended to a concentration of 2×10^6 cells per mL in serum-free media and incubated for 1 hour. Compound was added to Ramos cells to a final concentration of 500, 166.7, 55.6, 18.5, 6.2, 2.1, and 0.7 nM. Ramos cells were incubated with compound for 1 hour, washed with PBS and lysed in 1004 of BioRad lysis Buffer. Cell lysates were incubated with a biotinylated covalent probe (compound 1-215 disclosed in U.S. published application number 2010/0029610, incorporated by reference in its entirety) at a final concentration of 1 μM in a PBS, 0.05% Tween-20, 1% BSA solution for 1 h at room temperature. Standards and samples were transferred to a streptavidin-coated 96-well ELISA plate and mixed while shaking for 1 h at room temperature. The α-Btk antibody (BD 611116, 1:1000 dilution in PBS+0.05% Tween-20+0.5% BSA) was then added and incubated for 1 h at room temperature. After wash, goat α-mouse-HRP (1:5000 dilution in PBS+0.05% Tween-20+0.5% BSA) was added and incubated for 1 h at room temperature. The ELISA was developed with addition of tetramethyl benzidine (TMB) followed by Stop Solution and read at OD 450 nm. The standard curve (11.7-3000 pg/μL) was generated with human full-length recombinant Btk protein and plotted using a 4 parameter curve fit in Gen5 software. Uninhibited Btk detected from samples was normalized to μg total protein as determined by BCA protein analysis (Pierce Cat. 23225).
# The results of this assay show the concentration of compound producing 50% occupancy of BTK. This level of occupancy empirically translates to a level of 50% inhibition of BTK activity (both as measured by autophosphorylation and by phosphorylation of PLCγ2). […] The compound numbers correspond to the compound numbers in the examples.
# activated BTK enzyme = target: T2, activated BTK enzyme (Homo sapiens, UniProt Q06187); assay: Omnia assay for potency assessment against BTK; type: biochemical; details: BTK inhibition assay; [BTK]=5 nM, [ATP]=40 μM, [Y5-Sox]=10 μM
# T2 construct: purchased Life Technologies PV3363
# Excerpt: Omnia Assay Protocol for Potency Assessment Against BTK
# The protocol below describes an assay to measure potency of compounds against the activated BTK enzyme. The mechanics of the assay platform are best described by the vendor (Life Technologies, Carlsbad, Calif.) on their website at the following URLs: www.lifetechnologies.com/us/en/home/life-science/drug-discovery/target-and-lead-identification-and-validation/kinasebiology/kinase-activity-assays/omnia-kinase-assays/omnia-kinase-principle.html and tools.lifetechnologies.com/content/sfs/manuals/omnia_kinase_assay_man.pdf
# Briefly, 10× stocks of BTK (PV3363) from Life Technologies, 1.13×ATP (AS00lA) and Sox conjugated peptide substrates, Y5-Sox, (KZN305l) were prepared in 1× kinase reaction buffer consisting of 20 mM Tris, pH 7.5, 5 mM MgCl2, 1 mM EGTA, 5 mM (3-glycerophosphate, 5% glycerol (10× stock, KB002A) and 0.2 mM DTT (DS00lA). 5 μL of each enzyme were pre-incubated in a Corning (#3574) 384-well, white, non-binding surface microtiter plate (Corning, N.Y.) for 30 min. at room temperature with a 0.5 μL volume of 50% DMSO or serially diluted compounds prepared in 50% DMSO. Kinase reactions were started with the addition of […] of the ATP/Tyr-Sox peptide substrate Y5 mix and monitored every 71 seconds for 60 minutes at λex360/λem485 in a Synergy4 plate reader from BioTek (Winooski, Vt.). At the conclusion of each assay, progress curves from each well were examined for linear reaction kinetics and fit statistics (R2, 95% confidence interval, absolute sum of squares). Initial velocity (0 minutes to ˜30 minutes) from each reaction was determined from the slope of a plot of relative fluorescence units vs time (minutes) and then plotted against inhibitor concentration to estimate IC50 from log [Inhibitor] vs Response, Variable Slope model in GraphPad Prism from GraphPad Software (San Diego, Calif.).
# Reagent conditions for the assay are:
# [BTK]=5 nM, [ATP]=40 μM, [Y5-Sox]=10 μM (ATP KMapp˜36 μM).
# The compound numbers correspond to the compound numbers in the examples.
# T1 sequence (Q06187 whole entry): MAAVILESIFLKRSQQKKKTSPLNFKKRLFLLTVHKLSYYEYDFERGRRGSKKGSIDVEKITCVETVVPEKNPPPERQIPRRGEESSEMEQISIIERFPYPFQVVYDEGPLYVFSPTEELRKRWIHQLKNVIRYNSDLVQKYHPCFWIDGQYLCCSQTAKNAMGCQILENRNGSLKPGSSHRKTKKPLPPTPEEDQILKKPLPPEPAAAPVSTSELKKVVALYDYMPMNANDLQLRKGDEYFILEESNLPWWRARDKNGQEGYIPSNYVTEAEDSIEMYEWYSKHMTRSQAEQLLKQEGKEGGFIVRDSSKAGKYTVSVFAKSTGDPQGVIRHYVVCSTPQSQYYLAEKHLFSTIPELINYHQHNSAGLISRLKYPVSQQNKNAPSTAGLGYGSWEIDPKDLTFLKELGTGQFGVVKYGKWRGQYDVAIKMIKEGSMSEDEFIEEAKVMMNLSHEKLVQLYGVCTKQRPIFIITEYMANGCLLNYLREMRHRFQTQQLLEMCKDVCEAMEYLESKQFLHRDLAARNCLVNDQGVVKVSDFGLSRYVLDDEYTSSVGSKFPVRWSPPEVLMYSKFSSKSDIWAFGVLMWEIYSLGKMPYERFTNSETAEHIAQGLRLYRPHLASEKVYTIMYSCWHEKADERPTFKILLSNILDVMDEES
# T2 sequence (Q06187 whole entry): as above
EC50 [1],IC50 (activated BTK enzyme),SMILES
0.01 to 0.1 µM,< 0.01 µM,"C=CC(=O)N1CCC[C@@H](Nc2nc(Nc3ccc4c(c3)CCN(C)C4)ncc2F)C1 [Compound I-28, (R)-1-(3-((5-Fluoro-2-((2-methyl-1,2,3,4-tetrahydroisoquinolin-6-yl)amino)-pyrimidin-4-yl)amino)piperidin-1-yl)prop-2-en-1-one]"
0.01 to 0.1 µM,< 0.01 µM,"C=CC(=O)N1CCC[C@@H](Nc2nc(Nc3ccc4c(c3)CCN(C(C)C)C4)ncc2F)C1 [Compound I-29, (R)-1-(3-((5-Fluoro-2-((2-isopropyl-1,2,3,4-tetrahydroisoquinolin-6-yl)amino)-pyrimidin-4-yl)amino)piperidin-1-yl)prop-2-en-1-one]"
0.01 to 0.1 µM,< 0.01 µM,"C=CC(=O)N1CCC[C@@H](Nc2nc(Nc3ccc4c(c3)CCN(C(C)=O)C4)ncc2F)C1 [Compound I-30, (R)-1-(3-((2-((2-Acetyl-1,2,3,4-tetrahydroisoquinolin-6-yl)amino)-5-fluoro-pyrimidin-4-yl)amino)piperidin-1-yl)prop-2-en-1-one]"
< 0.01 µM,< 0.01 µM,"C=CC(=O)N1CCC[C@@H](Nc2nc(Nc3ccc4c(c3)CCN(C3COC3)C4)ncc2F)C1 [Compound I-31, (R)-1-(3-(5-Fluoro-2-(2-(oxetan-3-yl)-1,2,3,4-tetrahydroisoquinolin-6-ylamino)-pyrimidin-4-ylamino)piperidin-1-yl)prop-2-en-1-one]"
< 0.01 µM,< 0.01 µM,"C=CC(=O)N1CCC[C@@H](Nc2nc(Nc3ccc4c(c3)CCN(CC3COC3)C4)ncc2F)C1 [Compound I-32, (R)-1-(3-(5-Fluoro-2-(2-(oxetan-3-ylmethyl)-1,2,3,4-tetrahydroisoquinolin-6-ylamino)pyrimidin-4-ylamino)piperidin-1-yl)prop-2-en-1-one]"

# The remaining lines, values behind:
SMILES,EC50 [1],IC50 (activated BTK enzyme)
"C=CC(=O)N1CCC[C@@H](Nc2nc(Nc3ccc4c(c3)CN(CC(F)(F)F)C4)ncc2F)C1 [Compound I-22, (R)-1-(3-((5-fluoro-2-((2-(2,2,2-trifluoroethyl)isoindolin-5-yl)amino)pyrimidin-4-yl)amino)piperidin-1-yl)prop-2-en-1-one]",0.01 to 0.1 µM,< 0.01 µM
"C=CC(=O)N1CCC[C@@H](Nc2nc(Nc3ccc4c(c3)CN(CCO)C4)ncc2F)C1 [Compound I-23, (R)-1-(3-((5-fluoro-2-((2-(2-hydroxyethyl)isoindolin-5-yl)amino)pyrimidin-4-yl)amino)piperidin-1-yl)prop-2-en-1-one]",< 0.01 µM,< 0.01 µM
"C=CC(=O)N1CCC[C@@H](Nc2nc(Nc3ccc4c(c3)CN(c3ccc(F)cc3)C4)ncc2F)C1 [Compound I-24, (R)-1-(3-((5-fluoro-2-((2-(4-fluorophenyl)isoindolin-5-yl)amino)pyrimidin-4-yl)amino)piperidin-1-yl)prop-2-en-1-one]",0.101 to 1 µM,< 0.01 µM
"C=CC(=O)N1CCC[C@@H](Nc2nc(Nc3ccc4c(c3)CN(C(C)(C)C)C4)ncc2F)C1 [Compound I-25, (R)-1-(3-((2-((2-(tert-butyl)isoindolin-5-yl)amino)-5-fluoropyrimidin-4-yl)amino)piperidin-1-yl)prop-2-en-1-one]",< 0.01 µM,< 0.01 µM
"C=CC(=O)N1CC2(CC(Nc3nc(Nc4ccc5c(c4)CN(C)C5)ncc3F)C2)C1 [Compound I-26, 1-(6-((5-Fluoro-2-((2-methylisoindolin-5-yl)amino)pyrimidin-4-yl)amino)-2-azaspiro[3.3]heptan-2-yl)prop-2-en-1-one]",< 0.01 µM,< 0.01 µM
"C=CC(=O)N1CCC[C@@H](Nc2nc(Nc3ccc4c(c3)CCNC4)ncc2F)C1 [Compound I-27, (R)-1-(3-((5-fluoro-2-((1,2,3,4-tetrahydroisoquinolin-6-yl)amino)pyrimidin-4-yl)amino)piperidin-1-yl)prop-2-en-1-one]",0.01 to 0.1 µM,< 0.01 µM
